Test [1] is described as follows: Inhibition of mammalian 5'-Cap- RNA dependent translation in human HeLa cells after 60 mins by luciferase reporter gene assay. In kind it is functional, cell-based. As to conditions: 1 h.
Test [2] is described as follows: Inhibition of viral IRES-mediated translation in human HeLa cells after 60 mins by luciferase reporter gene assay. Particulars: 1 h. In kind it is functional, cell-based. (In general: A reporter such as luciferase makes a cellular process visible.)

As a reminder, the IC50 is the midpoint of a concentration-inhibition curve. As for `CC(C)C[C@H]1NC(=O)[C@H]2C[C@@]3([C@@]45C[C@@H]6C(=O)N[C@H](C(C)C)C(=O)N6[C@@H]4Nc4ccccc45)c4ccccc4N[C@H]3N2C1=O`, the IC50 in test [1] and in test [2] was more than 100 µM each time.
Take `COc1cc(C)c2c(OC)cc(=O)oc2c1-c1c(O)cc(C)c2c(OC)cc(=O)oc12` [DEMETHYLKOTANIN]: the half-inhibitory concentration (IC50) in test [1] and in test [2] was more than 100 µM in each case.
On to `COc1cc(O)cc2cc(O)c3c(=O)cc(C)oc3c12`, for which the IC50 in test [1] and in test [2] was more than 100 µM throughout.
On to `COc1cc(O)cc2cc3oc(C)cc(=O)c3c(O)c12`, for which the results for the IC50 in test [1] and in test [2] were 80 µM and 44 µM, respectively.

The values are drawn from ChEMBL document CHEMBL1148983, “A diketopiperazine dimer from a marine-derived isolate of Aspergillus niger” (J Nat Prod, 2004).
